Test results taken from patent US8084399B2, “Process for screening of a binding amphiphilic peptides specific for hairpin RNA” (priority 2009, dated 2011).
Where no end group is shown, it is not given here. [ ]: non-standard residue; d: D form. Orn = NCCC[C@H](N)C(=O)O; Dap = NC[C@H](N)C(=O)O

Key:
16S ribosomal RNA A-site = assay: Fluorescence anisotropy competition with Rev-N-rhodamine probe, binding to 16S A-site; details: 20° C., pH 7.4, read-out: Dissociation constant, 16S A-site
How it was run: (§1)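 Competitive fluorescence anisotropy at 20° C in 20 mM HEPES pH 7.4, 140 mM NaCl, 5 mM KCl, 1 mM MgCl2. Heat-refolded target RNA bound to 10 nM Rev-N-rhodamine probe; peptide titrated until anisotropy returned to baseline, and Kd fitted from a competition binding equation.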

RRE hairpin RNA = assay: Fluorescence anisotropy competition with Rev-N-rhodamine probe, binding to RRE hairpin RNA; set-up: species or system HIV; details: 20° C., pH 7.4, read-out: Dissociation constant, RRE
How it was run: as §1

[1] = Circular dichroism (CD), percentage of alpha-helix; format: physicochemical; details: CD at 20° C., condition not given; for Alpha-helical rate (%), second value of pair: value after the slash; for Alpha-helical rate (%), first value of pair: value before the slash
How it was run: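 Spectra recorded at 20 °C, 190–250 nm, three averaged scans, background-corrected and converted to mean residue ellipticity. Helix fraction derived from [θ] at 222 nm relative to full-helix and random-coil reference values, which depend on residue number and temperature.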

TAR hairpin RNA = assay: Fluorescence anisotropy competition with Rev-N-rhodamine probe, binding to TAR hairpin RNA; set-up: species or system HIV; details: fluorescence anisotropy, 20° C., pH 7.4; read-out: Dissociation constant, TAR
How it was run: as §1

IRES RNA [2] = assay: Tryptophan fluorescence strength on addition of target RNA; format: binding, HCV
Description: Fluorescence strength was measured to investigate target RNA binding of the third generation peptides. When tryptophan is activated by 285 nm light, it becomes fluorescent at the wavelength. Changes of fluorescence resulted from the binding respectively to different targets such as IRES, RRE, TAR and 16S A-site RNA, were measured. 0.02 equivalent of target RNA was added slowly to 1 uM peptide solution containing tryptophan.

IRES domain IV hairpin = assay: Fluorescence anisotropy competition with Rev-N-rhodamine probe, binding to IRES hairpin; set-up: species or system HCV; details: for differentiation coefficient (IRES): (mean Kd to other hairpin RNA)/(Kd to one hairpin RNA); for Kd: fluorescence anisotropy, 20° C., pH 7.4, read-out: Dissociation constant, IRES
How it was run: as §1

IRES RNA [3] = assay: Solid surface method (biotin peptide on streptavidin plate, isotope-labeled RNA) with or without tRNAmix; format: binding, HCV; details: comparison with/without tRNAmix, in words
Description: Solid surface method was performed to investigate specificity to target RNA of the third generation peptides. Particularly, biotin was conjugated to N-terminal of the peptide, resulting in the preparation for streptavidin binding. 5′-end of target RNA was labeled with an isotope. Streptavidin coated plate was prepared, to which the amphiphilic peptide was adhered at different concentrations. The plate was reacted with a certain amount of the isotope-labeled RNA, followed by washing. Only the RNA conjugated with the amphiphilic peptide was obtained. IC50 was calculated based on the concentration of the target RNA. Experiments were performed in the presence and in the absence of tRNA^mix (Sigma-Aldrich, Germany), and the results were compared.

Row | Substance | Kd (16S ribosomal RNA A-site) | Kd (RRE hairpin RNA) | Alpha-helical rate (%), second value of pair [1] | Alpha-helical rate (%), first value of pair [1] | Kd (TAR hairpin RNA) | Fluorescence strength of tryptophan reduced by (IRES RNA [2]; wavelength moved to shorter site, IRES) | differentiation coefficient (IRES) (IRES domain IV hairpin) | binding strength to IRES, in words (IRES domain IV hairpin; compared with the original peptide) | Kd (IRES domain IV hairpin) | IC50 to IRES RNA in the presence or in the absence of tRNAmix (IRES RNA [3]) | Fluorescence strength of tryptophan at #7 reduced from that of tryptophan at #14 of peptide 3h (IRES RNA [2]; in the presence of IRES)
1 | LKKLLKLLKKLLKWAG [2u, tryptophan scanned second generation peptide] | 3.3 nM | 18 nM | 52% | 20% | 7.8 nM | 1.6 fold | 14 | significantly increased | 0.69 nM |  | 
2 | LKKLLKWLOrnKLLDapLAG (LKKLLKWL[Orn]KLL[Dap]LAG-NH2; N-terminus assumed; SMILES CC(C)C[C@H](NC(=O)[C@H](CN)NC(=O)[C@H](CC(C)C)NC(=O)[C@H](CC(C)C)NC(=O)[C@H](CCCCN)NC(=O)[C@H](CCCN)NC(=O)[C@H](CC(C)C)NC(=O)[C@H](Cc1c[nH]c2ccccc12)NC(=O)[C@H](CCCCN)NC(=O)[C@H](CC(C)C)NC(=O)[C@H](CC(C)C)NC(=O)[C@H](CCCCN)NC(=O)[C@H](CCCCN)NC(=O)[C@@H](N)CC(C)C)C(=O)N[C@@H](C)C(=O)NCC(N)=O) [peptide 3d, third generation peptide, both faces modified] | 25 nM | 26 nM | 38% | 32% | 24 nM |  | 45 |  | 0.55 nM | not much different | 2.3 fold
